Structures are written as SMILES.

The source of these data is ChEMBL document CHEMBL3886950, “Furanone compounds as kinase inhibitors” (2016).

The target of the assay is Serine/threonine-protein kinase B-raf (Homo sapiens, UniProt P15056, V600E). In words: LanthaScreen Kinase Assay: The BRAFV600E enzymatic assay was performed using a LanthaScreen kinase assay kit purchased from Life Technologies (Grand Island, N.Y.). The assay was conducted according to the procedure provided in the assay kit. […] The final reaction volume for each reaction was 10 ul. The reaction was stopped by addition of 10 ul of TR-FRET dilution buffer kinase supplemented with kinase quench buffer (10 mM final) and Tb-anti-pMAP2K1 (2 nM final). The plate was further incubated at room temperature for another 60 minutes, and the fluorescent signals were read on Victor 5 (Perkin Elmer) with excitation at 340 nm and emission at 495 and 520 nM. The assay signal was determined as a ratio of FRET-specific signal measured with emission filter at 520 nM to that of the signal measured with Tb-specific emission filter at 495 nM. IC50 value was calculated using appropriate programs in GraphPad Prism by plotting the logarithm of the concentration versus percent inhibition.
Sequence of Serine/threonine-protein kinase B-raf (P15056 2-766 V600E limits assumed): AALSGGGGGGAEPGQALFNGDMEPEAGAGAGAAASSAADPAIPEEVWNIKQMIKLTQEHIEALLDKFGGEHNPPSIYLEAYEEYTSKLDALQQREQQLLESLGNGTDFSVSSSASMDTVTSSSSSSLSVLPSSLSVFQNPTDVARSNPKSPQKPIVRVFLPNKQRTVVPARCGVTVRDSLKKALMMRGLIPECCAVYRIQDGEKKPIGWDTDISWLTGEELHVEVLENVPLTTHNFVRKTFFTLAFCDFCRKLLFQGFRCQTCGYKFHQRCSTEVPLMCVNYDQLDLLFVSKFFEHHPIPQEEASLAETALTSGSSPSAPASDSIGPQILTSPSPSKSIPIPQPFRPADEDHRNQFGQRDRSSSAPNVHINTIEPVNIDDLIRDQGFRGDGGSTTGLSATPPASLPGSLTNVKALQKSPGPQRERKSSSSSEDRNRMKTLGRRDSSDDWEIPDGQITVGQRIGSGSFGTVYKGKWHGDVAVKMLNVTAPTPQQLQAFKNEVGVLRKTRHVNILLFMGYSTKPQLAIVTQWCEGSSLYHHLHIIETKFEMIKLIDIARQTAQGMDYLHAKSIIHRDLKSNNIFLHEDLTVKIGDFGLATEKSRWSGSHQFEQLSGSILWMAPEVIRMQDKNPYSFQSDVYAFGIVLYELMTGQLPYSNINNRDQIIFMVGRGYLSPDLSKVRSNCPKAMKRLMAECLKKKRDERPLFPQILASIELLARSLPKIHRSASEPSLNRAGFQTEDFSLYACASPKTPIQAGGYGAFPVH

For `Nc1nccc(C2=C(c3cccc(NS(=O)(=O)c4c(F)cccc4F)c3F)C(=O)C3(CCCC3)O2)n1`, the 50% inhibitory concentration (IC50) is 29 nM.
In the case of `CC1(C)OC(c2ccnc(N)n2)=C(c2cc(Cl)cc(NS(=O)(=O)c3ccc(F)cc3F)c2F)C1=O`, the half-inhibitory concentration (IC50) is 10 nM.
With `CC1(C)OC(c2ccnc(N)n2)=C(c2cc(Cl)cc(NS(=O)(=O)c3c(F)cccc3F)c2F)C1=O`, the IC50 was 5.5 nM.
